How the values were obtained:
Assay in all cases: Bliss excess, mean over the matrix (fraction); higher = more synergy
[1] = system: COLO-824 (Breast Carcinoma)
Outline: (§1)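 After 24 hours at 37°C and 5% CO2 in 1536-well plates, cells in DMEM/F12 or RPMI plus 10% FBS received two-drug dose matrices for 72 hours. Viability came from CellTiter-Glo 2.0 luminescence and was scaled as inhibition, anchored at 0 by vehicle wells and at 1 by blank wells. Combination Emax is taken as the second-highest inhibition in the matrix, and Bliss excess as the observed combination effect less EA + EB − EA·EB, with EA and EB the single-agent effects.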

IGR-37 (Melanoma) = system: IGR-37 (Melanoma)
Outline: as §1

ARH-77 (Non-Cancerous) = system: ARH-77 (Non-Cancerous)
Outline: as §1

[2] = system: PANC-10-05 (Pancreatic Carcinoma)
Outline: as §1

[3] = system: KARPAS-422 (B-Cell Non-Hodgkin's Lymphoma)
Outline: as §1

[4] = system: SISO (Cervical Carcinoma)
Outline: as §1

LN-405 (Glioblastoma) = system: LN-405 (Glioblastoma)
Outline: as §1

A498 (Kidney Carcinoma) = system: A498 (Kidney Carcinoma)
Outline: as §1

PA-1 (Ovarian Carcinoma) = system: PA-1 (Ovarian Carcinoma)
Outline: as §1

[5] = system: NCI-H2066 (Squamous Cell Lung Carcinoma)
Outline: as §1

[6] = system: OS-RC-2 (Kidney Carcinoma)
Outline: as §1

[7] = system: SK-MES-1 (Squamous Cell Lung Carcinoma)
Outline: as §1

[8] = system: ONS-76 (Other Solid Carcinomas)
Outline: as §1

[9] = system: NCI-H64 (Small Cell Lung Carcinoma)
Outline: as §1

[10] = system: CAL-29 (Bladder Carcinoma)
Outline: as §1

GI-ME-N (Neuroblastoma) = system: GI-ME-N (Neuroblastoma)
Outline: as §1

[11] = system: BICR22 (Oral Cavity Carcinoma)
Outline: as §1

[12] = system: NCI-H1650 (Lung Adenocarcinoma)
Outline: as §1

[13] = system: COLO-320-HSR (Colorectal Carcinoma)
Outline: as §1

[14] = system: CAPAN-2 (Pancreatic Carcinoma)
Outline: as §1

| Structure (SMILES) | Bliss excess [1] | Bliss excess (IGR-37 (Melanoma)) | Bliss excess (ARH-77 (Non-Cancerous)) | Bliss excess [2] | Bliss excess [3] | Bliss excess [4] | Bliss excess (LN-405 (Glioblastoma)) | Bliss excess (A498 (Kidney Carcinoma)) | Bliss excess (PA-1 (Ovarian Carcinoma)) | Bliss excess [5] | Bliss excess [6] | Bliss excess [7] | Bliss excess [8] | Bliss excess [9] | Bliss excess [10] | Bliss excess (GI-ME-N (Neuroblastoma)) | Bliss excess [11] | Bliss excess [12] | Bliss excess [13] | Bliss excess [14] |
| --- | --- | --- | --- | --- | --- | --- | --- | --- | --- | --- | --- | --- | --- | --- | --- | --- | --- | --- | --- | --- |
| CN(C)CCCOc1ccc(-c2ccc3ncc4c(c3c2)n(C2CCOCC2)c(=O)n4C)cn1 [AZD0156] + C=CCn1c(=O)c2cnc(Nc3ccc(N4CCN(C)CC4)cc3)nc2n1-c1cccc(C(C)(C)O)n1 [AZD1775] (first compound max 1 µM, partner max 1 µM) | -0.0024 | -0.0159 | -0.0207 | -0.0519 | -0.0476 | -0.0513 | -0.0478 | -0.0532 | -0.0546 | -0.07 | -0.0652 | -0.0176 | -0.0487 | -0.0931 | -0.0301 | -0.0452 | -0.0146 | -0.0451 | -0.0454 | -0.0709 |
| CN(C)CCCOc1ccc(-c2ccc3ncc4c(c3c2)n(C2CCOCC2)c(=O)n4C)cn1 [AZD0156] + CCN(CCO)CCCOc1ccc2c(Nc3cc(CC(=O)Nc4cccc(F)c4)[nH]n3)ncnc2c1 [AZD2811] (first compound max 1 µM, 7x7, partner max 1 µM) | -0.0565 | -0.0191 | 0.0216 | -0.0169 | 0.0004 | 0.0081 | -0.0356 | -0.0302 | 0.038 | -0.0649 | -0.0312 | -0.0458 | -0.0169 | 0.0802 | 0.0269 | -0.0488 | 0.0091 | -0.0571 | -0.0278 | -0.0637 |
| CN(C)CCCOc1ccc(-c2ccc3ncc4c(c3c2)n(C2CCOCC2)c(=O)n4C)cn1 [AZD0156] + C[C@@H]1COCCN1C2=NC(=NC(=C2)C3(CC3)[S@](=N)(=O)C)C4=C5C=CNC5=NC=C4 [AZD6738] (first compound max 1 µM, 7x7, partner max 10 µM) | 0.0425 | -0.0153 | 0.0673 | -0.0415 | -0.0444 | 0.0119 | -0.0236 | -0.0347 | -0.0238 | -0.0404 | -0.0419 | -0.0406 | 0.0096 | -0.0368 | 0.0162 | -0.015 | -0.0626 | -0.0294 | -0.0146 | -0.0591 |
| CN(C)CCCOc1ccc(-c2ccc3ncc4c(c3c2)n(C2CCOCC2)c(=O)n4C)cn1 [AZD0156] + O=C(c1cc(Cc2n[nH]c(=O)c3ccccc23)ccc1F)N1CCN(C(=O)C2CC2)CC1 [Olaparib] (first compound max 3 µM, partner max 3 µM) | 0.0729 | -0.0103 | 0.0648 | 0.0378 | 0.0171 | 0.0631 | -0.0375 | 0.047 | 0.122 | 0.0139 | -0.0432 | -0.0199 | 0.0366 | -0.0106 | 0.0098 | -0.0116 | -0.0003 | -0.0462 | 0.104 | -0.0535 |
| C=CCn1c(=O)c2cnc(Nc3ccc(N4CCN(C)CC4)cc3)nc2n1-c1cccc(C(C)(C)O)n1 [AZD1775] + C1CN(CCC1(C(=O)N[C@@H](CCO)C2=CC=C(C=C2)Cl)N)C3=NC=NC4=C3C=CN4 [Capivasertib] (first compound max 3 µM, partner max 3 µM) | -0.0289 | -0.0316 | 0.018 | -0.102 | -0.0691 | -0.102 | -0.0436 | -0.0315 | -0.0229 | -0.0567 | -0.085 | 0.04 | -0.0258 | 0.0202 | 0.0187 | -0.0726 | 0.0369 | -0.0473 | -0.0314 | -0.0949 |
| C=CCn1c(=O)c2cnc(Nc3ccc(N4CCN(C)CC4)cc3)nc2n1-c1cccc(C(C)(C)O)n1 [AZD1775] + C[C@@H]1COCCN1C2=NC(=NC(=C2)C3(CC3)[S@](=N)(=O)C)C4=C5C=CNC5=NC=C4 [AZD6738] (first compound max 1 µM, partner max 10 µM) | 0.0691 | 0.0017 | 0.0324 | -0.0611 | -0.0445 | 0.0461 | -0.0025 | -0.0536 | -0.01 | 0.0216 | -0.0604 | -0.0223 | -0.0256 | 0.0015 | -0.006 | -0.0397 | 0.0233 | -0.0054 | 0.0852 | -0.0608 |
| C=CCn1c(=O)c2cnc(Nc3ccc(N4CCN(C)CC4)cc3)nc2n1-c1cccc(C(C)(C)O)n1 [AZD1775] + O=C(c1cc(Cc2n[nH]c(=O)c3ccccc23)ccc1F)N1CCN(C(=O)C2CC2)CC1 [Olaparib] (first compound max 1 µM, partner max 10 µM) | -0.0423 | -0.0132 | -0.004 | -0.0871 | -0.0648 | 0.0151 | -0.0583 | -0.067 | -0.0037 | -0.0407 | -0.0981 | -0.0915 | -0.0826 | -0.0547 | -0.0722 | -0.0434 | -0.106 | -0.0643 | -0.0404 | -0.0576 |
| CCN(CCO)CCCOc1ccc2c(Nc3cc(CC(=O)Nc4cccc(F)c4)[nH]n3)ncnc2c1 [AZD2811] + C=CCn1c(=O)c2cnc(Nc3ccc(N4CCN(C)CC4)cc3)nc2n1-c1cccc(C(C)(C)O)n1 [AZD1775] (first compound max 1 µM, partner max 1 µM) | -0.0967 | -0.023 | 0.024 | -0.021 | -0.0349 | 0.0157 | -0.0312 | -0.0494 | 0.0565 | -0.0589 | -0.0231 | -0.0112 | 0.018 | -0.0413 | 0.0208 | -0.0112 | -0.0093 | -0.0277 | -0.0465 | -0.0462 |
| CCN(CCO)CCCOc1ccc2c(Nc3cc(CC(=O)Nc4cccc(F)c4)[nH]n3)ncnc2c1 [AZD2811] + C[C@@H]1COCCN1C2=NC(=NC(=C2)C3(CC3)[S@](=N)(=O)C)C4=C5C=CNC5=NC=C4 [AZD6738] (first compound max 1 µM, 7x7, partner max 10 µM) | -0.0843 | -0.0366 | 0.0254 | -0.0793 | -0.0581 | 0.0006 | -0.0386 | -0.0832 | -0.0116 | -0.0114 | -0.0449 | -0.0484 | -0.0864 | -0.075 | -0.0023 | -0.0437 | -0.059 | -0.0801 | -0.0366 | -0.0412 |
| CCN(CCO)CCCOc1ccc2c(Nc3cc(CC(=O)Nc4cccc(F)c4)[nH]n3)ncnc2c1 [AZD2811] + O=C(c1cc(Cc2n[nH]c(=O)c3ccccc23)ccc1F)N1CCN(C(=O)C2CC2)CC1 [Olaparib] (first compound max 1 µM, 7x7, partner max 10 µM) | -0.0071 | -0.0353 | 0.0114 | -0.0468 | 0.0267 | 0.0951 | -0.0224 | -0.0656 | 0.0873 | -0.022 | -0.0261 | -0.0127 | -0.0103 | 0.0589 | 0.0378 | -0.0233 | -0.0861 | -0.025 | -0.0179 | -0.0222 |
| COc1nnc2ccc(N3CCC(c4ccc(OCCN5CCN(C)C(=O)[C@H]5C)cc4)CC3)nn12 [AZD5153] + CN(CC[C@H](CSC1=CC=CC=C1)NC2=C(C=C(C=C2)S(=O)(=O)NC(=O)C3=CC=C(C=C3)N4CCC(CC4)[C@H](C5=CC=CC=C5C6=CC=C(C=C6)Cl)O)S(=O)(=O)C(F)(F)F)CCO [AZD4320] (first compound max 1 µM, 7x7, partner max 1 µM) | 0.057 |  | -0.019 |  |  | -0.0052 | 0.0448 | 0.0103 | 0.0659 |  | 0.0115 | 0.0704 |  |  | -0.0125 | 0.0077 |  | -0.0124 |  |  |
| Cc1c2c(nn1C)CSCc1cc(n(C)n1)CSc1cc(c3ccccc3c1)OCCCc1c(C(=O)O)n(C)c3c-2c(Cl)ccc13 [AZD5991] + C1CN(CCC1(C(=O)N[C@@H](CCO)C2=CC=C(C=C2)Cl)N)C3=NC=NC4=C3C=CN4 [Capivasertib] (first compound max 1 µM, 7x7, partner max 3 µM) | 0.01 |  | -0.037 | 0.0422 | -0.132 | -0.0021 | 0.0158 | -0.0091 | 0.0437 | -0.0197 | -0.0596 | 0.0568 | -0.0003 | -0.0261 | -0.0211 | -0.0245 | 0.119 | 0.012 | 0.0007 | 0.0085 |
| CC(=O)c1c(C)c2cnc(Nc3ccc(N4CCNCC4)cn3)nc2n(C2CCCC2)c1=O [Palbociclib] + CN(CC[C@H](CSC1=CC=CC=C1)NC2=C(C=C(C=C2)S(=O)(=O)NC(=O)C3=CC=C(C=C3)N4CCC(CC4)[C@H](C5=CC=CC=C5C6=CC=C(C=C6)Cl)O)S(=O)(=O)C(F)(F)F)CCO [AZD4320] (first compound max 10 µM, 7x7, partner max 1 µM) | 0.0326 |  | -0.0498 |  |  | -0.0669 | -0.0276 | -0.134 | -0.0315 |  | -0.0999 | -0.0549 |  |  | -0.0702 | -0.0771 |  | -0.0805 |  |  |
| CCc1c2c(nc3ccc(O)cc13)-c1cc3c(c(=O)n1C2)COC(=O)[C@]3(O)CC [SN-38] + O=C(c1cc(Cc2n[nH]c(=O)c3ccccc23)ccc1F)N1CCN(C(=O)C2CC2)CC1 [Olaparib] (first compound max 0.3 µM, 7x7, partner max 10 µM) |  | 0.0226 | 0.0446 | 0.0059 | 0.0276 | 0.0546 | -0.0524 | 0.036 | 0.0044 | -0.0477 |  |  | 0.05 | 0.101 |  | 0.0672 | 0.0626 | 0.0138 | -0.0523 | -0.0382 |
| C[C@@H](c1ccc2nccn2c1)n1nnc2ncc(-c3cnn(C)c3)nc21 [Savolitinib] + CN(CC[C@H](CSC1=CC=CC=C1)NC2=C(C=C(C=C2)S(=O)(=O)NC(=O)C3=CC=C(C=C3)N4CCC(CC4)[C@H](C5=CC=CC=C5C6=CC=C(C=C6)Cl)O)S(=O)(=O)C(F)(F)F)CCO [AZD4320] (first compound max 1 µM, 7x7, partner max 1 µM) | -0.0101 |  | -0.0322 |  |  | -0.045 | -0.0518 | -0.0589 | -0.0096 |  | -0.0618 | -0.0188 |  |  | -0.0647 | -0.0699 |  | -0.0646 |  |  |
